# Values quoted from earlier work in patent US12727761B2, “Dosimetry system for photodynamic anitmicrobial therapy device of infectious keratitis” (UNIVERSITY OF MIAMI, priority 2020, dated 2026).
# Experiments:
# corneal infection = settings: RB-PDAT as experimental therapy for corneal infection
# [1] = tested on: fungal and bacterial isolates derived from patients with infectious keratitis; settings: Rose Bengal photodynamic antimicrobial therapy (RB-PDAT)
# Candida albicans = settings: erythrosine-mediated PDT
# [2] = tested on: keratitis derived Acanthamoeba castellanii
compound,measurement,setting,value
O=C([O-])c1c(Cl)c(Cl)c(Cl)c(Cl)c1-c1c2cc(I)c(=O)c(I)c-2oc2c(I)c([O-])c(I)cc12.[Na+].[Na+] [Rose Bengal],patients who avoided undergoing emergency corneal transplantation,corneal infection,approximately 72%
same,inhibition of fungal and bacterial isolates,[1],fully inhibit
O=C1OC2(c3ccccc31)c1cc(I)c(O)c(I)c1Oc1c2cc(I)c(O)c1I [erythrosine],reduction in concentration,Candida albicans,1.97 log10
CN(C)c1ccc2nc3ccc(=[N+](C)C)cc-3sc2c1 [methylene blue],respiratory activity,[2]; methylene blue-mediated PDT,significantly reduce
same,effects with traditional Acanthamoeba treatment regimens,[2]; methylene blue-mediated PDT combined with traditional treatment regimens,synergistic effects
